# Tested on: rabbit skeletal myofibrils (approximately 90% fast fibers)
# Experiment: Activation of fast skeletal myofibrils (PUMA coupled-enzyme ATPase assay)
# Format: biochemical
# Conditions: concentration at which the compound increased the enzymatic activity by 40%; calcium level pCa25
# Description: Preparation of fast skeletal myofibrils: Rabbit skeletal myofibrils were prepared based upon the method of Herrmann et al. (Biochem. 32(28):7255-7263(1993). Myofibrils were prepared from rabbit psoas muscle purchased from Pel-Freez Biologicals (Arkansas) within 2 days of ordering, stored on ice. Minced muscle was homogenized in 10 volumes of ice-cold “standard” buffer (50 mM Tris, pH 7.4, 0.1 M KOAc, 5 mM KCl, 2 mM dithiothreitol (DTT), 0.2 mM phenylmethylsulfonyl fluoride (PMSF), 10 μM leupeptin, 5 μM pepstatin, and 0.5 mM sodium azide) containing 5 mM ethylenediaminetetraacetic acid (EDTA) and 0.5% Triton X-100 using an Omni-Macro homogenizer. Myofibrils were recovered by low speed centrifugation (3000 rpm for 10 minutes) and washed 2 times in the Triton X-100 containing buffer to ensure removal of cellular membrane. Following the Triton washes, myofibrils were washed 3 times in “standard” buffer containing 2 mM magnesium acetate. A final wash in assay buffer (12 mM piperazine-1,4-bis(2-ethanesulfonic acid) (PIPES), pH 6.8, 60 mM KCl, 1 mM DTT) was performed and brought to 10% sucrose for flash freezing in liquid nitrogen and storage at −80° C.
# Activation of Fast Skeletal Myofibrils: Fast fiber activators were identified by Measuring the enzymatic activity of muscle myofibril preparations using the proprietary PUMA (trademark) (see, e.g., U.S. Pat. Nos. 6,410,254, 6,743,599, 7,202,051, and 7,378,254) assay system. Myofibril preparations consisted of rabbit skeletal muscle (approximately 90% fast fibers) that had been mechanically homogenized and washed with a detergent (Triton X-100) to remove cellular membranes. This preparation retained all of the sarcomeric components in a native conformation and the enzymatic activity was still regulated by calcium. Compounds were tested using a myofibril suspension and a level of calcium sufficient to increase enzymatic activity of the myofibrils to 25% of their maximal rate (termed pCa25). Enzymatic activity was tracked via a pyruvate kinase and lactate dehydrogenase-coupled enzyme system. This assay regenerates myosin-produced ADP into ATP by oxidizing NADH, producing an absorbance change at 340 nm. The buffering system was 12 mM PIPES, 2 mM MgCl2, 1 mM DTT at pH 6.8 (PM12 buffer).
row,SMILES,AC1.4 [µM]
1,Cc1ccc2c(n1)C(C)(CC(F)F)C(=O)NC21COC1 (stereo not shown) [92a],1.318
2,Cc1ccc2c(n1)C(C)(CC(F)F)C(=O)NC21COC1 (stereo not shown) [92b],0.400
3,CC1(C)NC(=O)C(C)(Cn2cccn2)c2nc(C#N)ccc21 (stereo not shown) [134a],0.626
4,CC1(C)NC(=O)C(C)(Cn2cccn2)c2nc(C#N)ccc21 (stereo not shown) [134b],4.986
5,"CCC1(CC)C(=O)NC(C)(C)c2cc(Cl)c(C#N)cc21 [compound 34, 7-chloro-4,4-diethyl-1,1-dimethyl-3-oxo-1,2,3,4-tetrahydroisoquinoline-6-carbonitrile]",0.229
6,CCC1(CC)C(=O)NC(C)(C)c2c(OC)cc(OC)cc21 [compound 50],0.763
7,CC1(C)NC(=O)C(C)(C)c2cc(C#N)cnc21 [compound 58],5.040
8,CCC1(CC)C(=O)NC(C)(C(F)F)c2ccc(C#N)cc21 (stereo not shown) [compound 59],0.381
9,CCC1(CC)C(=O)NC(C)(C)c2c(C#N)cccc21 [compound 63],3.707
10,CCC1(CC)C(=O)NC2(COC2)c2ncc(Cl)nc21 [compound 68],0.830
11,CCC1(CC)C(=O)NC(C)(C)c2ncc(Cl)nc21 [compound 69],0.485
12,CC1(C)NC(=O)C(C)(Cn2cccn2)c2nc(Cl)ccc21 (stereo not shown) [compound 70],0.522
13,CC1(Cn2cccn2)C(=O)NC2(COC2)c2ccc(Cl)cc21 (stereo not shown) [compound 75],1.174
14,C=CCC1(C)NC(=O)C(CC)(CC)c2nc(Cl)ccc21 (stereo not shown) [compound 77],7.898
15,CCC1(CC(F)F)C(=O)NC2(COC2)c2ccc(C(F)F)nc21 (stereo not shown) [compound 88],0.203
16,C=Cc1cnc2c(n1)C(CC)(CC)C(=O)NC21COC1 [compound 94],8.994
17,Cc1ccc2c(n1)C(C)(CC(F)F)C(=O)NC21COC1 (stereo not shown) [compound 95],0.720
18,CCC1(CCOC)C(=O)NC2(COC2)c2ccc(C)nc21 (stereo not shown) [compound 96],5.393
19,CCC1(CC)C(=O)NC(C)(C)c2cc(C)c(C#N)cc21 [compound 97],0.332
20,CCC1(CC)C(=O)NC(C)(C)c2cc(C3CC3)c(C#N)cc21 [compound 98],2.085
21,CCC1(CCO)C(=O)NC2(COC2)c2ccc(C)nc21 (stereo not shown) [compound 102],8.474
22,CCC1(CCO)C(=O)NC2(COC2)c2ccc(OC(F)F)nc21 (stereo not shown) [compound 105],4.313
23,CC1(C)NC(=O)C(C)(Cn2cccn2)c2nc(C#N)ccc21 (stereo not shown) [compound 107],1.080
24,CC1(C)NC(=O)C(C)(Cc2cn[nH]c2)c2nc(C#N)ccc21 (stereo not shown) [compound 110],3.478
25,CCC1(CCOC)C(=O)NC2(COC2)c2ccc(C#N)nc21 (stereo not shown) [compound 112],1.437
26,CC1(C)NC(=O)C(c2ccccc2)c2ccccc21 (stereo not shown) [compound 138],7.955
27,CCC1(CC)C(=O)NC(C)(C)c2ccc(Cl)c(F)c21 [compound 141],<0.077
28,"CCC1(CC)C(=O)NC2(COC2)c2ccc(COC(F)F)nc21 [compound 143, 2-[(difluoromethoxy)methyl]-8,8-diethyl-6H-spiro[1,6-naphthyridine-5,3′-oxetan]-7(8H)-one]",2.830
29,CCC1(CC(F)F)C(=O)NC2(COC2)c2ccc(OC)nc21 (stereo not shown) [compound 145],0.581
30,CCC1(C)C(=O)NC2(COC2)c2ccc(OC(F)F)nc21 (stereo not shown) [compound 146],0.283

# The remaining lines, values ahead:
row,AC1.4 [µM],SMILES
1,3.293,"C[C@@H](O)CC1(C)C(=O)NC2(COC2)c2ccc(Cl)cc21 (mixture of isomers) [167a, rac-(4R)-6-chloro-4-[(2R)-2-hydroxypropyl]-4-methyl-2H-spiro[isoquinoline-1,3′-oxetan]-3(4H)-one]"
2,0.869,"C[C@H](O)CC1(C)C(=O)NC2(COC2)c2ccc(Cl)cc21 (mixture of isomers) [167b, rac-(4R)-6-chloro-4-[(2S)-2-hydroxypropyl]-4-methyl-2H-spiro[isoquinoline-1,3′-oxetan]-3(4H)-one]"
3,0.051,CCC1(CC)C(=O)NC2(COC2)c2ccc(Cl)cc21 [compound 43]
4,5.982,CC1(C)NC(=O)C2(CCOCC2)c2cc(Br)ccc21 [compound 44]
5,0.106,CCC1(CC)C(=O)NC(C)(C)c2ccc(C)cc21 [compound 46]
6,<0.077,CCC1(CC)C(=O)NC(C)(C)c2ccc(Cl)cc21 [compound 48]
7,0.093,CC1(C)NC(=O)C(C)(C)c2cc(Br)ccc21 [compound 51]
8,0.711,CCC1C(=O)NC(C)(C)c2ccc(Br)cc21 (stereo not shown) [compound 53]
9,0.596,CCC1(CCCO)C(=O)NC(C)(C)c2ccc(Br)cc21 (stereo not shown) [compound 54]
10,0.252,C=CCC1(C)C(=O)NC(C)(C)c2ccc(C#N)nc21 (stereo not shown) [compound 60]
11,>39.200,CC1(C)NC(=O)C2(CCOCC2)c2cc(C#N)ccc21 [compound 62]
12,1.052,CCN(CC)C1C(=O)NC(C)(C)c2ccc(Br)cc21.Cl (stereo not shown) [compound 65]
13,2.502,CN(c1ccccc1)C1C(=O)NC(C)(C)c2ccc(Br)cc21.Cl (stereo not shown) [compound 66]
14,0.367,CCC1(C)C(=O)NC(C)(C)c2ccc(Cl)nc21 (stereo not shown) [compound 71]
15,0.223,C=CCC1(C)C(=O)NC(C)(C)c2ccc(Cl)nc21 (stereo not shown) [compound 76]
16,<0.077,CCC1(Cc2ccccc2Cl)C(=O)NC(C)(C)c2ccc(Br)cc21 (stereo not shown) [compound 79]

row,AC1.4 [µM],SMILES
1,0.112,CCC1(Cc2cccc(Cl)c2)C(=O)NC(C)(C)c2ccc(Br)cc21 (stereo not shown) [compound 80]
2,0.098,CCC1(CCF)C(=O)NC(C)(C)c2ccc(Br)cc21 (stereo not shown) [compound 81]
3,0.084,CCC1(Cc2ccc(Cl)cc2)C(=O)NC(C)(C)c2ccc(Br)cc21 (stereo not shown) [compound 82]
4,<0.077,CCC1(CC(F)F)C(=O)NC(C)(C)c2ccc(Br)cc21 (stereo not shown) [compound 83]
5,0.401,CCC1(CC)C(=O)NC(C)(C)c2ccc(Cl)nc21 [compound 84]
6,2.555,CC1(C)C(=O)NC2(COC2)c2ccc(Cl)nc21 [compound 90]
7,20.240,CCC1(CC(=O)O)C(=O)NC(C)(C)c2ccc(Br)cc21 (stereo not shown) [compound 91]
8,0.321,C#CCC1(C)C(=O)NC(C)(C)c2ccc(C#N)nc21 (stereo not shown) [compound 111]
9,0.474,CCC1(CCO)C(=O)NC(C)(C)c2ccc(Br)cc21 (stereo not shown) [compound 115]
10,0.274,CCC1(CC)C(=O)NC(C)(C)c2cc(Br)c(C#N)cc21 [compound 116]
11,2.365,"CC(C)(O)CC1(C)C(=O)NC2(COC2)c2ccc(Cl)cc21 (stereo not shown) [compound 137, 6-chloro-4-(2-hydroxy-2-methylpropyl)-4-methyl-2H-spiro[isoquinoline-1,3′-oxetan]-3(4H)-one]"
12,30.805,CCC1(CC(=O)NCc2ccccc2)C(=O)NC(C)(C)c2ccc(Br)cc21 (stereo not shown) [compound 139]
13,0.199,CC1(C)NC(=O)C(CCF)(CCF)c2cc(Br)ccc21 [compound 140]
14,2.377,CC1(C)C(=O)NC2(COC2)c2ccc(C#N)nc21 [compound 142]
15,2.346,COc1ccc2c(n1)C(C)(C)C(=O)NC21COC1 [compound 147]

# — patent US11479561B2, “Tetrahydroisoquinoline derivatives” (Cytokinetics, Incorporated, priority 2016, dated 2022)
